# Measured values: patent US5217984A, “1-phenyl substituted-1H, 3H-thiazole [3,4-a] benzimidazoles and pharmaceutical compositions containing them” (priority 1990, dated 1993)
# Like-named read-outs stand apart in the source and are kept apart here.
# Key:
# [1] = relative lipophylia (RM) by reverse phase thin layer chromatography; format: physicochemical; conditions: rp-tlc, acetone/water 2:1
# Method: The lipophylic character of the synthesized compounds was evaluated with reverse phase, thin layer chromatography.
# The non-polar stationary phase is represented by plates of Merck 60 F254 silanized silica gel, whereas the polar phase consists of an acetone/water mixture (2:1).
# The compounds were solubilized in chloroform (3 mg/ml).
# The RM values were calculated from the average experimental values of RF, obtained from three chromatograms using the formula: […]
# Higher values of RM corresponding to lower values of RF indicate more lipophylic compounds.
# [2] = tested on: human T4-lymphocyte cell line (CEM); test: growth inhibition of normal uninfected cells (CEM); format: cell-based; conditions: CCRF-CEM, read-out: IC50 (toxic concentration, 50% growth inhibition of normal uninfected cells)
# Method: (§1) For their effects on HIV-induced cytopathogenicity in human T4 -lymphocyte cell line (CEM), the compounds of the present invention were evaluated according to NIH procedures as described by R. Vince et al., Biochem. Biophys.Res.Comm., 156, 1046, 1988 and by O. S. Weislow et al. J. Natl.Canc. Inst., 81. 577,1988.
# b) the inhibitory concentration 50% (IC50) which represents the toxic concentration of drug resulting in 50% growth inhibition of normal uninfected cells.
# (§2) The methods, the test conditions, the evaluation criteria of the anti-HIV activity in vitro are described by Weislow, O. W., Kieser, R., Fine, D., Bader, J., Shoemaker, R. H., Boyd, M. R.: New soluble-formazan assay for HIV-1 cytopathic effects: application to high-flux screening of synthetic and natural products for AIDS-antiviral activity. J. Nati, Cancer Inst. 81:577-586,1989.
# [3] = tested on: HIV; test: HIV-induced cytopathogenicity in human T4-lymphocyte cell line (CEM); format: cell-based; conditions: for EC50: Human immunodeficiency virus 1, CCRF-CEM, read-out: EC50 (50% reduction of the viral cytopathic effect); for TI50 (therapeutic index): IC50/EC50 ratio
# Method: as §1
# It was possible to evaluate for many compounds of the invention:
# a) the effective concentration 50% (EC50), which represents the concentration of the tested compound resulting in 50% reduction of the viral cytopathic effect.
# c) the therapeutic index TI50 which is determined as the IC50 /EC50 ratio.
# Only substances able to cause at least a 50% or greater reduction of viral cytopathic effect are kept in consideration for further investigation.
# as §2
# [4] = silanized silica gel Merck 60 F254 plates, average of three chromatograms, read-out: RM (relative lipophylia)
Compound,chromatographic logP [1],also measured
Cc1ccccc1C1SCc2nc3ccccc3n21 (stereo not shown) [X],-0.452,
"Clc1cccc(Cl)c1C1SCc2nc3ccccc3n21 (racemic) [XXVI, (±) 1-(2,6-dichlorophenyl)-1H,3H-thiazole [3,4-a] benzimidazole]",-0.402,IC50 ([2]; uninfected CEM cells): 22.3 µM; EC50 ([3]; HIV-infected CEM cells): 0.257 µM; TI50 (therapeutic index) [3]: 86.8
Fc1ccc(C2SCc3nc4ccccc4n32)c(F)c1 (stereo not shown) [XX],-0.452,
Fc1ccc(C2SCc3nc4ccccc4n32)cc1 (stereo not shown) [VI],-0.412,
COc1cccc(C2SCc3nc4ccccc4n32)c1 (stereo not shown) [XII],-0.436,
N#Cc1ccc(C2SCc3nc4ccccc4n32)cc1 (stereo not shown) [XVIII],-0.506,
Clc1ccccc1C1SCc2nc3ccccc3n21 (stereo not shown) [VII],-0.393,
"Fc1cccc(C2SCc3nc4ccccc4n32)c1 (racemic) [V, (±) 1-(3-fluorophenyl)-1H,3H-thiazole [3,4-a] benzimidazole]",-0.434,IC50 ([2]; uninfected CEM cells): 67.4 µM; EC50 ([3]; HIV-infected CEM cells): 5.74 µM; TI50 (therapeutic index) [3]: 11.8
"Fc1cccc(F)c1C1SCc2nc3ccccc3n21 (racemic) [XXII, (±) 1-(2,6-difluorophenyl)-1H,3H-thiazole [3,4-a] benzimidazole]",,"chromatographic logP [1, 4]: -0.475; IC50 [2]: 80 µM; EC50 [3]: 1 µM; TI50 (therapeutic index) [3]: 80"
O=[N+]([O-])c1ccc(Cl)c(C2SCc3nc4ccccc4n32)c1 (stereo not shown) [XXX],-0.423,IC50 ([2]; uninfected CEM cells): > 54.4 µM; EC50 ([3]; HIV-infected CEM cells): 15.9 µM; TI50 (therapeutic index) [3]: > 3.42
FC(F)(F)c1cccc(C2SCc3nc4ccccc4n32)c1 (stereo not shown) [XV],-0.378,
Clc1cccc(C2SCc3nc4ccccc4n32)c1Cl (stereo not shown) [XXIV],-0.355,
"O=[N+]([O-])c1ccccc1C1SCc2nc3ccccc3n21 (stereo not shown) [XXXVI, 1-(2-nitro-phenyl)-1H,3H-thiazole [3,4-a] benzimidazole]",,IC50 ([2]; uninfected CEM cells): 37.2 µM; EC50 ([3]; HIV-infected CEM cells): 17.2 µM; TI50 (therapeutic index) [3]: 2.16
FC(F)(F)c1ccccc1C1SCc2nc3ccccc3n21 (stereo not shown) [XIV],-0.349,
Clc1cc(Cl)cc(C2SCc3nc4ccccc4n32)c1 (stereo not shown) [XXVIII],,"chromatographic logP [1, 4]: -0.337"
FC(F)(F)c1ccc(C2SCc3nc4ccccc4n32)cc1 (stereo not shown) [XVI],-0.387,
Brc1ccccc1C1SCc2nc3ccccc3n21 (stereo not shown) [I],-0.41,

Compound,chromatographic logP [1],also measured
COc1ccc(C2SCc3nc4ccccc4n32)cc1 (stereo not shown) [XIII],-0.477,
Clc1cccc(C2SCc3nc4ccccc4n32)c1 (stereo not shown) [VIII],-0.428,
O=[N+]([O-])c1cc(C2SCc3nc4ccccc4n32)ccc1Cl (stereo not shown) [XXXI],-0.414,
"N#Cc1cccc(C2SCc3nc4ccccc4n32)c1 (stereo not shown) [XXXIII, 1-(3-cyano-phenyl)-1H,3H-thiazole [3,4-a] benzimidazole]",,IC50 ([2]; uninfected CEM cells): 38.3 µM; EC50 ([3]; HIV-infected CEM cells): 2.94 µM; TI50 (therapeutic index) [3]: 13.1
Fc1cccc(C2SCc3nc4ccccc4n32)c1F (stereo not shown) [XIX],-0.452,
Brc1cccc(C2SCc3nc4ccccc4n32)c1 (stereo not shown) [II],-0.406,
"Fc1cccc(Cl)c1C1SCc2nc3ccccc3n21 (racemic) [XXIX, (±) 1-(2-chloro-6-fluorophenyl)-1H,3H-thiazole [3,4-a] benzimidazole]",-0.452,IC50 ([2]; uninfected CEM cells): 19.6 µM; EC50 ([3]; HIV-infected CEM cells): 0.596 µM; TI50 (therapeutic index) [3]: 32.8
Oc1cccc(C2SCc3nc4ccccc4n32)c1 (stereo not shown) [XVII],-0.591,IC50 ([2]; uninfected CEM cells): 127 µM; EC50 ([3]; HIV-infected CEM cells): 114 µM; TI50 (therapeutic index) [3]: 1.11
Clc1ccc(C2SCc3nc4ccccc4n32)cc1Cl (stereo not shown) [XXVII],-0.362,
"O=[N+]([O-])c1ccc(Cl)cc1C1SCc2nc3ccccc3n21 (racemic) [XXXII, (±) 1-(2-nitro-5-chlorophenyl)-1H,3H-thiazole [3,4-a] benzimidazole]",-0.387,
"Fc1ccccc1C1SCc2nc3ccccc3n21 (racemic) [IV, (±) 1-(2-fluorophenyl)-1H,3H-thiazole [3,4-a] benzimidazole]",-0.468,IC50 ([2]; uninfected CEM cells): > 126 µM; EC50 ([3]; HIV-infected CEM cells): 7.63 µM; TI50 (therapeutic index) [3]: > 16.5
Clc1ccc(C2SCc3nc4ccccc4n32)cc1 (stereo not shown) [IX],-0.402,
Fc1ccc(C2SCc3nc4ccccc4n32)cc1F (stereo not shown) [XXIII],-0.43,
Cc1cccc(C2SCc3nc4ccccc4n32)c1 (stereo not shown) [XI],-0.399,
Brc1ccc(C2SCc3nc4ccccc4n32)cc1 (stereo not shown) [III],-0.43,
Clc1ccc(C2SCc3nc4ccccc4n32)c(Cl)c1 (stereo not shown) [XXV],-0.329,
